# In US11584775B2, “C4-modified oleanolic acid derivatives for inhibition of IL-17 and other uses” (REATA PHARMACEUTICALS, INC., priority 2015, dated 2023):
# Legend:
# [1] = system: hIL17; test: IL-17 release from differentiated primary human T-cells (IL-17A HTRF assay); format: cell-based; conditions: inhibition of IL-17A levels; primary human CD4+ T cells differentiated into Th17 cells, 46-hour incubation
# Procedure, shortened: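 Cryopreserved primary human CD4+ T cells were activated with anti-CD3/CD28 beads and driven to Th17 with TGF-β, IL-6, IL-23 and IL-1β in the presence of compound (2-500 nM or 4-1000 nM) for 46 h at 37° C. Supernatant IL-17A was quantified by HTRF against a standard curve and normalized to DMSO. IC50s came from variable-slope fits, with viability read by CyQuant.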
# [2] = system: IFNγ-induced Nitric Oxide production; test: Nitric oxide production assay in RAW 264.7 mouse macrophages; format: cell-based; conditions: RAW264.7, suppression of IFNγ-induced NO production normalized to cell viability (WST-1), RAW 264.7, 24 hours IFNγ
# Procedure, shortened: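 Cells pre-treated 2 h with compound (0.4-200 nM or 2-1000 nM) in RPMI 1640 + 0.5% FBS, then stimulated with recombinant mouse IFNγ for 24 h at 37 °C. Nitrite measured by Griess reagent, viability by WST-1; IC50 from NO suppression normalized to viability and to DMSO/IFNγ controls.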
# [3] = biological target: T1, human RORγ (Homo sapiens, UniProt P51449); test: RORγ assay (GAL4-RORγ hybrid luciferase reporter, inverse-agonist activity); format: cell-based; conditions: GAL4-RORγ hybrid reporter cells, 23 hours
# T1 sequence (P51449 269-508 limits assumed): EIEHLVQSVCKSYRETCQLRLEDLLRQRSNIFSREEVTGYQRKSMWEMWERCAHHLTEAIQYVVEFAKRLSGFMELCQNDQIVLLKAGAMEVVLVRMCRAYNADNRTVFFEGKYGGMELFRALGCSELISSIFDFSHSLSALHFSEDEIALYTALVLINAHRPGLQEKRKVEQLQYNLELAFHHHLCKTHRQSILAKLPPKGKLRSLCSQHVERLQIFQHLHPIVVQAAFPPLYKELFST
# Procedure, shortened: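 Human cell line expressing GAL4-DBD/RORγ hybrid with UAS-driven luciferase, treated in triplicate with compound (0.4–200 nM or 2–1000 nM) for 23 h at 37 °C. Luminescence normalized to DMSO; viability measured in parallel by multiplex assay. IC50 for RORγ and viability by variable-slope nonlinear regression.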
# [4] = system: NRF2; test: AREc32 luciferase reporter assay; format: cell-based, human; conditions: EC2×: concentration required to increase GST ARE Luciferase reporter activity by 2-fold; AREc32 cells, 19 hours
# Procedure, shortened: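 AREc32 cells (MCF-7 stably carrying eight rat GSTA2 ARE copies driving firefly luciferase) treated 19 h with compound (0.4–200 nM or 2–1000 nM), triplicate. Luminescence normalized to DMSO as fold-induction; variable-slope fit capped at 50-fold; EC2× = concentration giving 2-fold induction.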
SMILES,IC50 [1] [nM],IC50 [2] [nM],IC50 [3] [nM],EC2x: concentration giving 2-fold induction of ARE luciferase reporter [4] [nM]
"Cc1noc([C@]23CCC(C)(C)C[C@H]2[C@H]2C(=O)C=C4[C@@]5(C)[C@H]6O[C@@]6(C#N)C(=O)[C@@](C)(O)[C@@H]5CC[C@@]4(C)[C@]2(C)CC3)n1 [Compound T49, (1 aR,3S,3aR,5aS,5bR,7aS,11aS,11bR,13bS,13cR)-3-hydroxy-3,5a,5b, 10,10,13b-hexamethyl-7a-(3-methyl-1,2,4-oxadiazol-5-yl)-2,12-dioxo-3,3a,4,5,5a,5b,6,7,7a,8,9,10,11,11a,11b,12,13b,13c-octadecahydropiceno[1,2-b]oxirene-1a(2H)-carbonitrile]",18,37.5,608,244
"CC1(C)CC[C@]2(C(=O)NCC(F)(F)F)CC[C@]3(C)[C@H](C(=O)C=C4[C@@]5(C)C=C(C#N)C(=O)C(C)(C)[C@@H]5CC[C@]43C)[C@@H]2C1 [Comparison Compound #2, reference compound]",40,4.5,104,53
"CCNC(=O)[C@]12CCC(C)(C)C[C@H]1[C@H]1C(=O)C=C3[C@@]4(C)C=C(C#N)C(=O)C(C)(C)[C@@H]4CC[C@@]3(C)[C@]1(C)CC2 [Comparison Compound #3, reference compound]",81,3.4,204,32
"COC(=O)[C@]12CCC(C)(C)C[C@H]1[C@H]1C(=O)C=C3[C@@]4(C)C=C(C#N)C(=O)[C@@](C)(COC(=O)c5ccccc5)[C@@H]4CC[C@@]3(C)[C@]1(C)CC2 [Compound T9, methyl (4aS,6aR,6bS,8aR,9R,12aS,14aR,14bS)-9-((benzoyloxy)methyl)-11-cyano-2,2,6a,6b,9,12a-hexamethyl-10,14-dioxo-1,3,4,5,6,6a,6b,7,8,8a,9,10,12a,14,14a,14b-hexadecahydropicene-4a(2H)-carboxylate]",37,191,361,962
"COC(=O)[C@]12CCC(C)(C)C[C@H]1[C@H]1C(=O)C=C3[C@@]4(C)C=C(C#N)C(=O)[C@@H](C)[C@@H]4CC[C@@]3(C)[C@]1(C)CC2 [Comparison Compound #1, reference compound]",25,1.2,127,11
"COC(=O)N[C@]12CCC(C)(C)C[C@H]1[C@H]1C(=O)C=C3[C@@]4(C)C=C(C#N)C(=O)[C@@](C)(O)[C@@H]4CC[C@@]3(C)[C@]1(C)CC2 [Compound T39, methyl ((4aS,6aR,6bS,8aR,9S,12aS,14aR,14bS)-11-cyano-9-hydroxy-2,2,6a,6b,9,12a-hexamethyl-10,14-dioxo-1,3,4,5,6,6a,6b,7,8,8a,9,10,12a,14,14a,14b-hexadecahydropicen-4a(2H)-yl)carbamate]",47,91.2,364,218
"CC(=O)OC[C@]1(C)C(=O)C(C#N)=C[C@]2(C)C3=CC(=O)[C@@H]4[C@@H]5CC(C)(C)CC[C@]5(C(=O)NCC(F)(F)F)CC[C@@]4(C)[C@]3(C)CC[C@H]21 [Compound T23, ((4R,4aR,6aS,6bR,8aS,12aS,12bR,14bS)-2-cyano-4,6a,6b, 11,11,14b-hexamethyl-3,13-dioxo-8a-((2,2,2-trifluoroethyl)carbamoyl)-3,4,4a,5,6,6a,6b,7,8,8a,9,10,11,12,12a,12b,13,14b-octadecahydropicen-4-yl)methyl acetate]",68,150,145,484
"CC1(C)CC[C@]2(NC(=O)C(C)(F)F)CC[C@]3(C)[C@H](C(=O)C=C4[C@@]5(C)C=C(C#N)C(=O)[C@@](C)(CO)[C@@H]5CC[C@]43C)[C@@H]2C1 [Compound T28, N-((4aS,6aR,6bS,8aR,9R,12aS,14aR,14bS)-11-cyano-9-(hydroxymethyl)-2,2,6a,6b,9,12a-hexamethyl-10,14-dioxo-1,3,4,5,6,6a,6b,7,8,8a,9,10,12a,14,14a,14b-hexadecahydropicen-4a(2H)-yl)-2,2-difluoropropanamide]",67,21.1,463,117
"COC(=O)[C@]12CCC(C)(C)C[C@H]1[C@@]1(O)C(=O)C=C3[C@@]4(C)C=C(C#N)C(=O)[C@@](C)(O)[C@@H]4CC[C@@]3(C)[C@]1(C)CC2 [Compound T38, methyl (4aS,6aS,6bR,8aR,9S,12aS,14aS,14bR)-11-cyano-9,14a-dihydroxy-2,2,6a,6b,9,12a-hexamethyl-10,14-dioxo-1,3,4,5,6,6a,6b,7,8,8a,9,10,12a,14,14a,14b-hexadecahydropicene-4a(2H)-carboxylate]",16,57.2,177,80
"CC1(C)CC[C@]2(NC(=O)C(C)(F)F)CC[C@]3(C)[C@H](C(=O)C=C4[C@@]5(C)[C@H]6O[C@@]6(C#N)C(=O)[C@@](C)(O)[C@@H]5CC[C@]43C)[C@@H]2C1 [Compound T51, N-((1aR,3S,3aR,5aS,5bR,7aS,11aS,11bR,13bS,13cR)-1a-cyano-3-hydroxy-3,5a,5b,10,10,13b-hexamethyl-2,12-dioxo-1a,3,3a,4,5,5a,5b,6,7,8,9,10,11,11a,11b,12,13b,13c-octadecahydropiceno[1,2-b]oxiren-7a(2H)-yl)-2,2-difluoropropanamide]",139,119,1690,840
"COC(=O)[C@]12CCC(C)(C)C[C@H]1[C@H]1C(=O)C=C3[C@@]4(C)C=C(C#N)C(=O)[C@](C)(CO)[C@@H]4CC[C@@]3(C)[C@]1(C)CC2 [Comparison Compound #301, reference compound]",17,1.8,144,8
"COCOC[C@]1(C)C(=O)C(C#N)=C[C@]2(C)C3=CC(=O)[C@@H]4[C@@H]5CC(C)(C)CC[C@]5(C(=O)OC)CC[C@@]4(C)[C@]3(C)CC[C@H]21 [Compound T7, methyl (4aS,6aR,6bS,8aR,9R,12aS,14aR,14bS)-11-cyano-9-((methoxymethoxy)methyl)-2,2,6a,6b,9,12a-hexamethyl-10,14-dioxo-1,3,4,5,6,6a,6b,7,8,8a,9,10,12a,14,14a,14b-hexadecahydropicene-4a(2H)-carboxylate]",27,95.1,251,270
"CNC(=O)[C@]1(C)C(=O)C(C#N)=C[C@]2(C)C3=CC(=O)[C@]45OC(=O)[C@@]6(CCC(C)(C)C[C@H]64)CC[C@@]5(C)[C@]3(C)CC[C@@H]12 [Compound T35, (4S,4aR,6aR,6bS,8aS,12aR,12bS,14bS)-2-cyano-N,4,6a,6b, 11,11,14b-heptamethyl-3,13,16-trioxo-4,4a,5,6,6a,6b,7,8,10,11,12,12a,13,14b-tetradecahydro-3H,9H-12b,8a-(epoxymethano)picene-4-carboxamide]",68,> 1000,413,>1000
"Cc1noc([C@]23CCC(C)(C)C[C@H]2[C@H]2C(=O)C=C4[C@@]5(C)C=C(C#N)C(=O)[C@@](C)(O)[C@@H]5CC[C@@]4(C)[C@]2(C)CC3)n1 [Compound T47, (4S,4aR,6aS,6bR,8aS,12aS,12bR,14bS)-4-hydroxy-4,6a,6b, 11,11,14b-hexamethyl-8a-(3-methyl-1,2,4-oxadiazol-5-yl)-3,13-dioxo-3,4,4a,5,6,6a,6b,7,8,8a,9,10,11,12,12a,12b,13,14b-octadecahydropicene-2-carbonitrile]",17,35.8,139,79
